Experimental data from patent US5077280A, “Treatment of viral infections” (priority 1988, dated 1991).

Tests used:
[1] = tested on: bone marrow cell growth (granulocyte-macrophages and erythrocytes); settings: patients; cited from earlier work
human CFU-GM cells = assay: human CFU-GM cell proliferation; assay type: cell-based; settings: concentrations as high as 100 μM
human bone marrow cells = assay: toxicity for human bone marrow cells; assay type: cell-based
bone marrow cells = assay type: cell-based, human; settings: 5 μM AZT for 2 hours; 50-100 μM of uridine (and also cytidine)
[2] = in vivo; cited from earlier work
[3] = tested on: viral replication (reverse transcriptase); assay: suppression of viral replication (assessed by inhibition of reverse transcriptase); assay type: cell-based; settings: combination molar ratios (uridine/AZT) as high as 10,000/1

Cc1cn([C@H]2C[C@H](N=[N+]=[N-])[C@@H](CO)O2)c(=O)[nH]c1=O [AZT, 3'-azido-3'deoxythymidine]
common complication of AZT therapy [1]: suppression of bone marrow cell growth

O=c1[nH]c(=O)n(COCCO)cc1Cc1ccccc1 [BAU, benzylacyclouridine]
effect on human CFU-GM cell proliferation (human CFU-GM cells): no substantial effect
toxicity per se for human bone marrow cells (human bone marrow cells): non-toxic

Nc1ccn([C@@H]2O[C@H](CO)[C@@H](O)[C@H]2O)c(=O)n1 [cytidine]
reversal of toxic effects of antiviral nucleoside analogues (bone marrow cells): essentially completely reversed

O=c1ccn([C@@H]2O[C@H](CO)[C@@H](O)[C@H]2O)c(=O)[nH]1 [uridine]
clearance by the body [2]: cleared rapidly
reversal of toxic effects of antiviral nucleoside analogues (bone marrow cells): essentially completely reversed
impairment of suppression of viral replication [3]: no impairment of suppression of viral replication
